# Assay results published in PubChem BioAssay (NCI).
# Where “and” joins values, the source holds several entries; their conditions need not be identical. Equal entries are not always repeated.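 Where inhibition never reached the appropriate level, the endpoint shown equals the highest concentration tested. Otherwise, values were interpolated linearly from a five-concentration, 48-hour dose response in 96-well plates. At the GI50, growth is halved. TGI marks complete inhibition of growth.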
# Experiments:
# Assay in all cases: DTP human tumour cell line panel, 48 h
# [1] = test system: M19-MEL melanoma
# [2] = test system: LOX IMVI melanoma
# [3] = test system: DMS 114 small cell lung
# [4] = test system: HT29 colon
# [5] = test system: A549 NSCLC
# [6] = test system: 786-0 renal
# [7] = test system: HCT-116 colon
# [8] = test system: COLO 205 colon
# [9] = test system: UACC-62 melanoma
# [10] = test system: NCI/ADR-RES ovarian
compound,measurement,setting,value
NCCn1ccc(NC(c2ccccc2)(c2ccccc2)c2ccccc2)nc1=O,TGI,[1],42.2 µM
same,TGI,[2],30.5 µM
same,TGI,[3],38.6 µM
same,TGI,[4],31.1 µM
same,TGI,[5],75.7 µM
same,TGI,[6],31.8 µM
same,TGI,[7],35.5 µM
same,TGI,[8],78.6 µM
COc1cc[c]([Sb]([Br])([CH]=C(C)C)([CH]=C(C)C)[CH]=C(C)C)cc1,GI50,[1],3.1 µM
same,TGI,[1],> 100 µM
same,GI50,[2],15.7 µM
same,TGI,[2],> 100 µM
same,GI50,[3],3.02 µM
same,TGI,[3],20.8 µM
same,GI50,[4],4.89 µM
same,TGI,[4],> 100 µM
same,GI50,[5],11.3 µM
same,TGI,[5],> 100 µM
same,GI50,[6],13.6 µM
same,TGI,[6],> 100 µM
same,GI50,[7],4.78 µM
same,TGI,[7],73.7 µM
same,GI50,[8],1.95 µM
same,TGI,[8],7.99 µM
same,GI50,[9],3.41 µM
same,TGI,[9],> 100 µM
CC1(C(=O)NCCN(CCNC(=O)C2(C)CC3(C)CC(C)(C2)C(=O)NC3=O)CCNC(=O)C2(C)CC3(C)CC(C)(C2)C(=O)NC3=O)CC2(C)CC(C)(C1)C(=O)NC2=O (stereo not drawn),TGI,[1],> 100 µM
same,TGI,[3],> 100 µM
same,TGI,[4],> 100 µM
same,TGI,[5],> 100 µM
same,TGI,[6],> 100 µM
same,TGI,[7],> 100 µM
same,TGI,[8],> 100 µM
same,TGI,[9],> 100 µM
O=C(N[C@@H]1C=CCC[C@@H]1c1ccccc1)OCc1ccccc1,TGI,[1],45.1 µM
same,TGI,[2],28.9 µM
same,TGI,[3],45.1 µM
same,TGI,[4],53.1 µM
same,TGI,[5],> 69.6 µM
same,TGI,[6],39.7 µM
same,TGI,[7],34.6 µM
same,TGI,[8],33.1 µM
same,TGI,[9],28 µM
NC(=S)N/N=C1\C(=O)N(CCc2ccccc2)C(=O)C1C(=O)NCCc1ccccc1 (stereo not drawn),TGI,[1],> 100 µM
same,TGI,[2],> 100 µM
same,TGI,[3],> 100 µM
same,TGI,[4],> 100 µM
same,TGI,[6],> 100 µM
same,TGI,[7],> 100 µM
same,TGI,[8],> 100 µM
same,TGI,[9],> 100 µM
COC1=C(C)C(=O)C2=C(C1=O)C(CO)N1C(C#N)C3CC4C(C1C2N1CCOC41)N3C (stereo not drawn),GI50,[1],0.0319 µM
same,TGI,[1],0.177 µM and 0.11 µM
same,GI50,[2],0.00204 µM
same,GI50,[3],0.0141 µM
same,TGI,[3],0.0348 µM and 0.0203 µM
same,TGI,[4],0.423 µM and 0.0773 µM
same,GI50,[5],0.0375 µM
same,TGI,[5],7.84 µM and 11.1 µM and 11.8 µM
same,GI50,[6],0.00243 µM
same,TGI,[6],1.31 µM and 1.55 µM
same,GI50,[8],0.000734 µM and 0.00604 µM and < 0.0134 µM
same,TGI,[8],0.0203 µM and 0.0151 µM and 0.0205 µM
same,TGI,[10],0.45 µM and 0.182 µM
O=C(c1ccco1)c1ccccc1C(=O)c1ccco1,TGI,[1],> 100 µM
same,TGI,[2],> 100 µM
same,TGI,[3],> 100 µM
same,TGI,[4],> 100 µM
same,TGI,[5],> 100 µM
same,TGI,[6],> 100 µM
same,TGI,[7],> 100 µM
same,TGI,[8],> 100 µM
same,TGI,[9],> 100 µM
Cc1ccc(/C=N/NS(=O)(=O)c2ccccc2)cc1,TGI,[2],> 100 µM
same,TGI,[3],> 100 µM
same,TGI,[4],> 100 µM
same,TGI,[5],> 100 µM
same,TGI,[6],> 100 µM
same,TGI,[7],> 100 µM
same,TGI,[8],> 100 µM
same,TGI,[9],> 100 µM
Cc1cccc(Cl)c1NC(N)=S,TGI,[1],> 100 µM
same,TGI,[3],82 µM
same,TGI,[4],> 100 µM
same,TGI,[5],> 100 µM
same,TGI,[6],48.6 µM
same,TGI,[7],35.9 µM
same,TGI,[8],> 100 µM
same,TGI,[9],> 100 µM
NC1=NN(c2ccccc2)C(=O)C1/C(=N\NC(=O)c1cc2ccccc2cc1O)C(=O)Nc1nc([N+](=O)[O-])cs1 (stereo not drawn),TGI,[1],> 82.9 µM
same,TGI,[2],55.4 µM
same,TGI,[3],45.6 µM
same,TGI,[4],> 93 µM
same,TGI,[5],> 100 µM
same,TGI,[6],> 100 µM
same,TGI,[7],> 87.9 µM
same,TGI,[8],54.8 µM
same,TGI,[9],56.6 µM
CCCCNC(=O)OCC(COc1ccccc1OC)OC(=O)NCCCC (stereo not drawn),TGI,[1],> 100 µM
same,TGI,[2],> 100 µM
same,TGI,[3],> 100 µM
same,TGI,[4],> 100 µM
same,TGI,[5],> 100 µM
same,TGI,[6],> 100 µM
same,TGI,[7],> 100 µM
same,TGI,[8],> 100 µM
same,TGI,[9],> 100 µM
O=C1NC2(CCCC2)/C(=N\O)C12CCCC2,TGI,[1],> 100 µM
same,TGI,[2],> 100 µM
same,TGI,[3],> 100 µM
same,TGI,[4],> 100 µM
same,TGI,[5],> 100 µM
same,TGI,[6],> 100 µM
same,TGI,[7],> 100 µM
same,TGI,[8],> 100 µM
same,TGI,[9],> 100 µM
CN(C)CCNC(=O)c1cccc2cc([N+](=O)[O-])ccc12,TGI,[1],0.902 µM
same,GI50,[2],0.566 µM and 0.129 µM
same,TGI,[3],0.743 µM
same,GI50,[4],0.681 µM and 0.189 µM
same,TGI,[4],4.96 µM and 1.07 µM
same,GI50,[5],0.183 µM
same,TGI,[5],2.22 µM
same,GI50,[6],1.62 µM and 0.254 µM
same,TGI,[6],8.14 µM and 3.53 µM
same,GI50,[7],0.513 µM and 0.0724 µM
same,GI50,[8],0.893 µM and 0.217 µM
same,TGI,[10],5.27 µM
Clc1ccccc1C1N2CCCCC2[C@@H]2c3[nH]c4ccccc4c3CCN12 (stereo partly drawn),TGI,[1],29.2 µM
same,TGI,[3],41.6 µM
same,TGI,[4],31.8 µM
same,TGI,[6],42.2 µM
same,TGI,[7],32.6 µM
same,TGI,[8],37.4 µM
same,TGI,[9],30.2 µM
O=C(c1ccccn1)c1nc(-c2ccc(Cl)c(Cl)c2)nc2ccc(Cl)cc12,TGI,[1],> 100 µM
same,TGI,[3],> 100 µM
same,TGI,[4],> 100 µM
same,TGI,[5],> 100 µM
same,TGI,[6],> 100 µM
same,TGI,[7],33.4 µM
same,TGI,[9],> 100 µM
COc1ccc(OC)c(/C=C/C(=O)C(C)(C)C)c1,TGI,[1],34.9 µM
same,TGI,[2],40.6 µM
same,TGI,[3],32.1 µM
same,TGI,[4],64.1 µM
same,TGI,[5],82.1 µM
same,TGI,[6],36.9 µM
same,TGI,[7],31.8 µM
same,TGI,[8],33.3 µM
same,TGI,[9],23.4 µM
[C-]#[O+].[C-]#[O+].[Ir].[O-]c1ccc2ccccc2c1N=Nc1ccccc1,GI50,[1],3.24 µM
same,TGI,[1],21.2 µM
same,TGI,[2],24.6 µM
same,GI50,[3],2.68 µM
same,TGI,[3],8.68 µM
same,TGI,[4],20.6 µM
same,TGI,[5],70.1 µM
same,GI50,[6],3.39 µM
same,TGI,[6],12.2 µM
same,TGI,[7],24.7 µM
same,TGI,[8],3.7 µM
same,TGI,[9],29.2 µM
same,TGI,[10],51.8 µM
CN(C)CCNC(=O)c1cccc2ccc(-c3cccnc3)nc12,TGI,[1],16.9 µM
same,TGI,[2],15.1 µM
same,TGI,[3],18.6 µM
same,TGI,[4],31.9 µM
same,TGI,[5],32.3 µM
same,TGI,[6],> 100 µM
same,TGI,[7],13.1 µM
same,TGI,[8],13.6 µM
same,TGI,[9],14.8 µM
S=c1nc[nH]c2nc[nH]c12,TGI,[1],> 734 µM
same,GI50,[2],0.321 µM and 3.01 µM
same,TGI,[2],41.4 µM and 111 µM and 192 µM
same,TGI,[3],385 µM
same,GI50,[4],22.5 µM
same,TGI,[4],> 750 µM
same,GI50,[5],65.9 µM
same,TGI,[5],> 100 µM and 714 µM and > 750 µM
same,GI50,[6],0.7 µM and 5.34 µM
same,TGI,[6],> 750 µM
same,GI50,[7],5.4 µM
same,TGI,[7],> 100 µM and 710 µM and > 750 µM
same,GI50,[8],18.8 µM
same,TGI,[8],> 100 µM and 546 µM and > 750 µM
same,TGI,[9],> 100 µM and 512 µM and > 750 µM
same,TGI,[10],> 735 µM
COc1ccc2[nH]c3c(C)c4cc[n+](C)cc4c(C)c3c2c1,GI50,[1],0.327 µM
same,TGI,[1],3.69 µM and 2.48 µM and 2.89 µM
same,GI50,[2],3.98 µM and 3.32 µM
same,TGI,[2],37 µM [middle of 4 runs]
same,GI50,[3],0.104 µM
same,TGI,[3],2.52 µM and 1.72 µM and 1.56 µM
same,GI50,[4],2.52 µM and 1.97 µM
same,TGI,[4],60.2 µM [middle of 4 runs]
same,GI50,[6],0.267 µM and 0.161 µM and 0.898 µM
same,TGI,[6],5.49 µM
same,GI50,[7],0.578 µM and 1.14 µM
same,TGI,[8],7.97 µM and 4.89 µM and 3.58 µM
same,GI50,[9],1.28 µM and 7.39 µM
same,GI50,[10],7.91 µM and 8.4 µM
CC(C)[C@](O)(C(=O)OCC1=CC[N+]2([O-])CC[C@@H](O)[C@@H]12)[C@H](C)O (stereo partly drawn),TGI,[1],> 10000 µM
same,TGI,[2],> 10000 µM
same,TGI,[4],> 10000 µM
same,TGI,[5],> 10000 µM
same,TGI,[6],> 10000 µM
same,TGI,[7],> 10000 µM
same,TGI,[8],> 10000 µM
same,TGI,[9],9920 µM
same,TGI,[10],> 10000 µM
Cc1cc2c(=O)cc(-c3ccc(C(F)(F)F)cc3)oc2c(C(=O)O)c1C,TGI,[1],> 100 µM
same,TGI,[2],> 100 µM
same,TGI,[3],> 100 µM
same,TGI,[4],> 100 µM
same,TGI,[5],> 100 µM
same,TGI,[6],> 100 µM
same,TGI,[7],> 100 µM
same,TGI,[8],> 100 µM
same,TGI,[9],> 100 µM
CCOc1ccccc1NC(=O)C(=O)C(C(=O)c1ccc2ccccc2c1)C1OC(=O)c2ccccc21 (stereo not drawn),TGI,[2],29.1 µM
same,TGI,[3],33.6 µM
same,TGI,[4],76.4 µM
same,TGI,[5],98.2 µM
same,TGI,[6],21.1 µM
same,TGI,[7],22.3 µM
same,TGI,[8],29.7 µM
same,TGI,[9],21.3 µM
O=c1c2cc(Br)ccc2nc(-c2ccccc2)n1NCC1(O)OCC(O)C(O)C1O (stereo not drawn),TGI,[1],> 100 µM
same,TGI,[2],> 100 µM
same,TGI,[3],> 100 µM
same,TGI,[4],> 100 µM
same,TGI,[5],> 100 µM
same,TGI,[6],> 100 µM
same,TGI,[7],> 100 µM
same,TGI,[8],> 100 µM
same,TGI,[9],> 100 µM
